Measured values from PubChem BioAssay (NCI).
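Tested at 5 concentrations; 48 h exposure; 96-well plates; endpoints linearly interpolated, else capped at highest concentration. The concentration for full growth arrest is given as TGI.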

How the values were obtained:
Assay in all cases: NCI anticancer screen, dose series, 48 h
[1] = test system: HT29 colon
[2] = test system: LOX IMVI melanoma
[3] = test system: UACC-257 melanoma
[4] = test system: SF-295 CNS
[5] = test system: M14 melanoma
[6] = test system: MDA-MB-231 breast
[7] = test system: SN12C renal
[8] = test system: BT-549 breast
[9] = test system: OVCAR-8 ovarian
[10] = test system: OVCAR-3 ovarian
[11] = test system: ACHN renal
[12] = test system: CAKI-1 renal
[13] = test system: DU-145 prostate
[14] = test system: MALME-3M melanoma
[15] = test system: OVCAR-4 ovarian
[16] = test system: MDA-MB-435
[17] = test system: NCI-H460 lung
[18] = test system: UO-31 renal
[19] = test system: EKVX NSCLC
[20] = test system: HOP-62 NSCLC
[21] = test system: TK-10 renal
[22] = test system: SK-MEL-2 melanoma
[23] = test system: NCI-H522 lung
[24] = test system: NCI-H23 lung
[25] = test system: SK-OV-3 ovarian
[26] = test system: SNB-19 CNS
[27] = test system: RPMI-8226 leukemia
[28] = test system: HS 578T breast
[29] = test system: NCI-H226 lung
[30] = test system: HCT-116 colon
[31] = test system: SK-MEL-28 melanoma
[32] = test system: A498 renal
[33] = test system: COLO 205 colon
[34] = test system: SK-MEL-5 melanoma
[35] = test system: HOP-92 NSCLC
[36] = test system: 786-0 renal
[37] = test system: SW-620 colon
[38] = test system: SF-539 CNS
[39] = test system: UACC-62 melanoma
[40] = test system: KM12 colon
[41] = test system: SF-268 CNS
[42] = test system: OVCAR-5 ovarian
[43] = test system: SR leukemia
[44] = test system: RXF 393 renal
[45] = test system: T-47D breast
[46] = test system: U251 CNS
[47] = test system: HCT-15 colon
[48] = test system: K-562 leukemia
[49] = test system: NCI/ADR-RES ovarian
[50] = test system: HCC-2998 colon
[51] = test system: MDA-N

CCN(CC)C(=S)SS(=O)(=O)c1ccc(F)cc1
TGI [1]: 53.9 µM | TGI [2]: 41.7 µM | TGI [3]: 87.3 µM | TGI [4]: > 100 µM | TGI [5]: 60.5 µM | TGI [6]: > 100 µM | TGI [7]: > 100 µM | TGI [8]: > 100 µM | TGI [9]: > 100 µM | TGI [10]: > 100 µM | TGI [11]: > 100 µM | TGI [12]: > 100 µM | TGI [13]: > 100 µM | TGI [14]: 68.4 µM | TGI [15]: > 100 µM | TGI [16]: > 100 µM | TGI [17]: > 100 µM | TGI [18]: 72.5 µM | TGI [19]: > 100 µM | TGI [20]: > 100 µM | TGI [21]: > 100 µM | TGI [22]: > 100 µM | TGI [23]: 0.505 µM | TGI [24]: > 100 µM | TGI [25]: > 100 µM | TGI [26]: > 100 µM | TGI [27]: 55.5 µM | TGI [28]: > 100 µM | TGI [29]: > 100 µM | TGI [30]: > 100 µM | TGI [31]: 30.5 µM | TGI [32]: > 100 µM | TGI [33]: > 100 µM | TGI [34]: > 100 µM | TGI [35]: > 100 µM | TGI [36]: > 100 µM | TGI [37]: 53.7 µM | TGI [38]: 52.4 µM | TGI [39]: > 100 µM | TGI [40]: > 100 µM | TGI [41]: > 100 µM | TGI [42]: > 100 µM | TGI [43]: 57.5 µM | TGI [44]: 40.4 µM | TGI [45]: > 100 µM | TGI [46]: 73.4 µM | TGI [47]: > 100 µM | TGI [48]: > 100 µM | TGI [49]: > 100 µM | TGI [50]: > 100 µM | TGI [51]: > 100 µM
